Laboratory results: publication PMC8765783, “Identification of the potential active site of the septal peptidoglycan polymerase FtsW” (PLoS Genetics, 2022)

Tests used:
Assay in all cases: fluorescence anisotropy
Format in all cases: binding
Conditions in all cases: 50 mM Hepes pH 7.5, 0.1 M NaCl, 0.005% DDM, 0.2% CHAPS, 21°C, 0.33 μM probe; labelled compound
[1] = target: T1, HisFtsW-FtsI(PBP3) complex (FtsW-FtsI/PBP3, "W 3") (Escherichia coli, UniProt P0ABG4, P196T)
T1 construct: His-tagged FtsW co-expressed with untagged FtsI/PBP3 from pDML2041 in E. coli C43(DE3); DDM-solubilised membranes, HisTrap, G25 desalting; tag kept; with Peptidoglycan D,D-transpeptidase FtsI
T1 sequence (P0ABG4 1-414 P196T): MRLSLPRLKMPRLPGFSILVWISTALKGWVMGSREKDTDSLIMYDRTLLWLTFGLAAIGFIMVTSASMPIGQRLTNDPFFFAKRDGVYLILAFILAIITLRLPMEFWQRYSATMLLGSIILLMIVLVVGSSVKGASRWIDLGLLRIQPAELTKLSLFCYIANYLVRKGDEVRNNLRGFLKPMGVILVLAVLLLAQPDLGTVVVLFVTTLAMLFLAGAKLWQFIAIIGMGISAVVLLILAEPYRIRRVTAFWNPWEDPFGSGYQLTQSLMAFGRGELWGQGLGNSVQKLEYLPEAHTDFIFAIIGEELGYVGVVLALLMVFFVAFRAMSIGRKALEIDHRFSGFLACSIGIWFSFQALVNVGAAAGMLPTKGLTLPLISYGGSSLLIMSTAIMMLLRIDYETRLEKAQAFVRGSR
T1 sequence (P0AD68 1-577 partner): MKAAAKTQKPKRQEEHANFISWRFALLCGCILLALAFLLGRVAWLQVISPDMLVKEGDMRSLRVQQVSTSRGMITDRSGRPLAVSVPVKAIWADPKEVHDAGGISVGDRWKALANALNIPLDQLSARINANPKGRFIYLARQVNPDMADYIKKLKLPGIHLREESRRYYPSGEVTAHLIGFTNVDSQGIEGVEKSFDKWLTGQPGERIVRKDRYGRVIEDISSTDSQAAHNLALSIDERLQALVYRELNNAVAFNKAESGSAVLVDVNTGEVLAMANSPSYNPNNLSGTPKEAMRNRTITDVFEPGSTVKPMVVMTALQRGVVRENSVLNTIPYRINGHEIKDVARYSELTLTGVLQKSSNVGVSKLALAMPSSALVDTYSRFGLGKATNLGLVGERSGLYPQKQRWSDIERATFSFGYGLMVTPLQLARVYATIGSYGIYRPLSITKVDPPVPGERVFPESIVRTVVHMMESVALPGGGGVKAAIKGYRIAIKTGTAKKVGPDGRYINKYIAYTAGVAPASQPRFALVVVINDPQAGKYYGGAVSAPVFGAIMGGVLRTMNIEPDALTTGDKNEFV
Text: (§1) fluorescence anisotropy on HisFtsW-FtsI(PBP3) complex (FtsW-FtsI/PBP3, "W 3")

[2] = target: T2, HisFtsW-FtsI(PBP3) complex (FtsW-FtsI/PBP3, "W 3") (Escherichia coli, UniProt P0ABG4, A135T)
T2 construct: His-tagged FtsW co-expressed with untagged FtsI/PBP3 from pDML2041 in E. coli C43(DE3); DDM-solubilised membranes, HisTrap, G25 desalting; tag kept; with Peptidoglycan D,D-transpeptidase FtsI
T2 sequence (P0ABG4 1-414 A135T): T1 sequence (P0ABG4 1-414 P196T)
T2 sequence (P0AD68 1-577 partner): T1 sequence (P0AD68 1-577 partner)
Text: as §1

[3] = target: T3, HisFtsW-FtsI(PBP3) complex (FtsW-FtsI/PBP3, "W 3") (Escherichia coli, UniProt P0ABG4, Y242H)
T3 construct: His-tagged FtsW co-expressed with untagged FtsI/PBP3 from pDML2041 in E. coli C43(DE3); DDM-solubilised membranes, HisTrap, G25 desalting; tag kept; with Peptidoglycan D,D-transpeptidase FtsI
T3 sequence (P0ABG4 1-414 Y242H): T1 sequence (P0ABG4 1-414 P196T)
T3 sequence (P0AD68 1-577 partner): T1 sequence (P0AD68 1-577 partner)
Text: as §1

[4] = target: T4, HisFtsW-FtsI(PBP3) complex (FtsW-FtsI/PBP3, "W 3") (Escherichia coli, UniProt P0ABG4, D297A)
T4 construct: His-tagged FtsW co-expressed with untagged FtsI/PBP3 from pDML2041 in E. coli C43(DE3); DDM-solubilised membranes, HisTrap, G25 desalting; tag kept; with Peptidoglycan D,D-transpeptidase FtsI
T4 sequence (P0ABG4 1-414 D297A): T1 sequence (P0ABG4 1-414 P196T)
T4 sequence (P0AD68 1-577 partner): T1 sequence (P0AD68 1-577 partner)
Text: as §1

[5] = target: T5, HisFtsW-FtsI(PBP3) complex (FtsW-FtsI/PBP3, "W 3") (Escherichia coli, UniProt P0ABG4, W138A)
T5 construct: His-tagged FtsW co-expressed with untagged FtsI/PBP3 from pDML2041 in E. coli C43(DE3); DDM-solubilised membranes, HisTrap, G25 desalting; tag kept; with Peptidoglycan D,D-transpeptidase FtsI
T5 sequence (P0ABG4 1-414 W138A): T1 sequence (P0ABG4 1-414 P196T)
T5 sequence (P0AD68 1-577 partner): T1 sequence (P0AD68 1-577 partner)
Text: as §1

[6] = target: T6, HisFtsW-FtsI(PBP3) complex (FtsW-FtsI/PBP3, "W 3") (Escherichia coli, UniProt P0ABG4, G199A)
T6 construct: His-tagged FtsW co-expressed with untagged FtsI/PBP3 from pDML2041 in E. coli C43(DE3); DDM-solubilised membranes, HisTrap, G25 desalting; tag kept; with Peptidoglycan D,D-transpeptidase FtsI
T6 sequence (P0ABG4 1-414 G199A): T1 sequence (P0ABG4 1-414 P196T)
T6 sequence (P0AD68 1-577 partner): T1 sequence (P0AD68 1-577 partner)
Text: as §1

[7] = target: T7, HisFtsW-FtsI(PBP3) complex (FtsW-FtsI/PBP3, "W 3") (Escherichia coli, UniProt P0ABG4, G381D)
T7 construct: His-tagged FtsW co-expressed with untagged FtsI/PBP3 from pDML2041 in E. coli C43(DE3); DDM-solubilised membranes, HisTrap, G25 desalting; tag kept; with Peptidoglycan D,D-transpeptidase FtsI
T7 sequence (P0ABG4 1-414 G381D): T1 sequence (P0ABG4 1-414 P196T)
T7 sequence (P0AD68 1-577 partner): T1 sequence (P0AD68 1-577 partner)
Text: as §1

[8] = target: T8, HisFtsW-FtsI(PBP3) complex (FtsW-FtsI/PBP3, "W 3") (Escherichia coli, UniProt P0ABG4, R243L)
T8 construct: His-tagged FtsW co-expressed with untagged FtsI/PBP3 from pDML2041 in E. coli C43(DE3); DDM-solubilised membranes, HisTrap, G25 desalting; tag kept; with Peptidoglycan D,D-transpeptidase FtsI
T8 sequence (P0ABG4 1-414 R243L): T1 sequence (P0ABG4 1-414 P196T)
T8 sequence (P0AD68 1-577 partner): T1 sequence (P0AD68 1-577 partner)
Text: as §1

[9] = target: T9, HisFtsW-FtsI(PBP3) complex (FtsW-FtsI/PBP3, "W 3") (Escherichia coli, UniProt P0ABG4, G371S)
T9 construct: His-tagged FtsW co-expressed with untagged FtsI/PBP3 from pDML2041 in E. coli C43(DE3); DDM-solubilised membranes, HisTrap, G25 desalting; tag kept; with Peptidoglycan D,D-transpeptidase FtsI
T9 sequence (P0ABG4 1-414 G371S): T1 sequence (P0ABG4 1-414 P196T)
T9 sequence (P0AD68 1-577 partner): T1 sequence (P0AD68 1-577 partner)
Text: as §1

[10] = target: T10, HisFtsW-FtsI(PBP3) complex (FtsW-FtsI/PBP3, "W 3") (Escherichia coli, UniProt P0ABG4, Q147E)
T10 construct: His-tagged FtsW co-expressed with untagged FtsI/PBP3 from pDML2041 in E. coli C43(DE3); DDM-solubilised membranes, HisTrap, G25 desalting; tag kept; with Peptidoglycan D,D-transpeptidase FtsI
T10 sequence (P0ABG4 1-414 Q147E): T1 sequence (P0ABG4 1-414 P196T)
T10 sequence (P0AD68 1-577 partner): T1 sequence (P0AD68 1-577 partner)
Text: as §1

[11] = target: T11, HisFtsW-FtsI(PBP3) complex (FtsW-FtsI/PBP3, "W 3") (Escherichia coli, UniProt P0ABG4)
T11 construct: His-tagged FtsW co-expressed with untagged FtsI/PBP3 from pDML2041 in E. coli C43(DE3); DDM-solubilised membranes, HisTrap, G25 desalting; tag kept; with Peptidoglycan D,D-transpeptidase FtsI
T11 sequence (P0ABG4 1-414): T1 sequence (P0ABG4 1-414 P196T)
T11 sequence (P0AD68 1-577 partner): T1 sequence (P0AD68 1-577 partner)

**Q.** For `CC(=O)N[C@H]1[C@H](O[C@H]2[C@H](O[C@H](C)C(=O)N[C@@H](C)C(=O)N[C@H](CCC(=O)N[C@@H](CCCCNc3ccc([N+](=O)[O-])c4nonc34)C(=O)N[C@H](C)C(=O)N[C@H](C)C(=O)O)C(=O)O)[C@@H](NC(C)=O)[C@@H](OP(=O)(O)OP(=O)(O)OC/C=C(/C)CC/C=C(/C)CC/C=C(/C)CC/C=C(/C)CC/C=C(/C)CC/C=C(/C)CC/C=C(/C)CC/C=C(/C)CC/C=C(\C)CC/C=C(\C)CCC=C(C)C)O[C@@H]2CO)O[C@H](CO)[C@@H](O)[C@@H]1O` [NBD-lipid II], which Kd [1] is on record?
**A.** 60 nM

**Q.** What about the Kd [2] of the same molecule?
**A.** 60 nM

**Q.** And the Kd [3]?
**A.** 40 nM

**Q.** And the Kd [4]?
**A.** 90 nM

**Q.** And the Kd [5]?
**A.** 60 nM

**Q.** And the Kd [6]?
**A.** 110 nM

**Q.** And the Kd [7]?
**A.** 100 nM

**Q.** What about the Kd [8] of the same molecule?
**A.** 70 nM

**Q.** What about the Kd [9] of the same molecule?
**A.** 50 nM

**Q.** And the Kd [10]?
**A.** 70 nM

**Q.** And the Kd [11]?
**A.** 130 nM
